The text below walks through data of patent EP0779296A2, “D-alpha-aminoalkanoyl-(S)-N-alpha-alkylbenzyl amides useful as intermediates for artificial sweeteners” (THE COCA-COLA COMPANY, priority 1992, dated 1994).

Where a SMILES comes first, the peptide text is derived from it.

Assay in one test: not given
As to conditions: value adopted for the reference solution; cited from earlier work.
Consider `COC(=O)[C@H](Cc1ccccc1)NC(=O)[C@@H](N)CC(=O)O` [aspartame] (H-Asp-Phe-OMe), for which the “sweetness of aspartame (adopted reference value)” value is reported as 180 times sucrose.

Another test can be described thus: Sweetness potency: four tasters compare dilutions of the test compound with a 200 ppm aspartame solution. Format: in vivo. Particulars: against 200 ppm aspartame solution; aspartame taken as 180 times sucrose. Here is the method: The sweetness potency was determined by having four tasters compare the sweetness of various dilutions of the test compound with a 200 ppm equivalent solution of aspartame, wherein the sweetness of aspartame was taken to be 180 times sucrose. […]
In turn, `C[C@H](NC(=O)[C@@H](C)NC(=O)[C@@H](N)CC(=O)O)c1ccccc1` [Example 2, L-aspartyl-D-alanine-N-(S)-α-methyl-benzylamide] registered a Sweetness of 180 times sucrose.

Regarding `CC[C@@H](NC(=O)[C@@H](N)CC(=O)O)C(=O)N[C@@H](C)c1ccccc1` [Example 3, L-aspartyl-D-α-aminobutyric-acid N-(S)-α-methylbenzyl amide], the Sweetness came out at 360 times sucrose.

`CCC[C@@H](NC(=O)[C@@H](N)CC(=O)O)C(=O)N[C@@H](C)c1ccccc1` [Example 4, L-aspartyl-D-α-aminopentanoic-acid-N-(S)-α-methylbenzyl amide] showed a Sweetness of 90 times sucrose.

In turn, `CC(C)[C@@H](NC(=O)[C@@H](N)CC(=O)O)C(=O)N[C@@H](C)c1ccccc1` [Example 5, L-aspartyl-D-valine-N-(S)-α-methylbenzyl amide] came in with a Sweetness of 540 times sucrose.

Regarding `C[C@H](NC(=O)[C@H](NC(=O)[C@@H](N)CC(=O)O)c1ccccc1)c1ccccc1` [Example 6, L-aspartyl-D-phenylglycine-N-(S)-α-methylbenzyl amide], the Sweetness is recorded as 270 times sucrose.

Consider `C[C@@H](NC(=O)[C@@H](N)CC(=O)O)C(=O)N[C@H](C)c1ccccc1` [Example 7, L-aspartyl-D-alanine-N-(R)-α-methylbenzyl amide], for which the Sweetness entry is listed as “less than 10 times sucrose”.

With `CCC(NC(=O)[C@@H](C)NC(=O)[C@@H](N)CC(=O)O)c1ccccc1` (stereo partly drawn) [Example 8, L-aspartyl-D-alanine-N-(R,S)-α-ethylbenzyl amide], the Sweetness was found to be 270 times sucrose.

The compound `CC(C)C(NC(=O)[C@@H](C)NC(=O)[C@@H](N)CC(=O)O)c1ccccc1` (stereo partly drawn) [Example 9, L-aspartyl-D-alanine-N-(R,S)-α-isopropylbenzyl amide] registered a Sweetness of 180 times sucrose.

For the compound `C[C@@H](NC(=O)[C@@H](N)CC(=O)O)C(=O)NC(c1ccccc1)C(C)(C)C` (stereo partly drawn) [Example 10, L-aspartyl-D-alanine-N-(R,S)-α-t-butylbenzyl amide], the Sweetness is 150 times sucrose.

In turn, `CCCC(NC(=O)[C@@H](C)NC(=O)[C@@H](N)CC(=O)O)c1ccccc1` (stereo partly drawn) [Example 11, L-aspartyl-D-alanine-N-(R,S)-α-n-propylbenzyl amide] gave a Sweetness of 90 times sucrose.

As to `C[C@@H](NC(=O)[C@@H](N)CC(=O)O)C(=O)NC(c1ccccc1)c1ccccc1` [Example 12, L-aspartyl-D-alanine-N-α-phenyl benzyl amide], the Sweetness stood at 180 times sucrose.

With `C[C@@H](NC(=O)[C@@H](N)CC(=O)O)C(=O)NC(c1ccccc1)C1CC1` (stereo partly drawn) [Example 13, L-aspartyl-D-alanine-N-α-cyclopropyl benzyl amide], the Sweetness was 1,080 times sucrose.

In turn, `CC[C@H](NC(=O)[C@@H](CC)NC(=O)[C@@H](N)CC(=O)O)c1ccccc1` [Example 14, L-aspartyl-D-α-aminobutyric acid-N-(S)-α-ethylbenzyl amide] displayed a Sweetness of 2500 x Sucrose.

Turning to `CC[C@H](NC(=O)[C@H](NC(=O)[C@@H](N)CC(=O)O)C(C)C)c1ccccc1` [Example 15, L-aspartyl-D-valine-N-(S)-α-ethylbenzyl amide], the Sweetness turned out to be 1500 times sucrose.

Staying with this test, now noted: against 200 ppm aspartame solution; aspartame taken as 180 times sucrose; listed as L-aspartyl-D-α-aminobutyric-acid-(S)-N-α-alkylbenzyl amide.
With `CC[C@H](NC(=O)[C@@H](CC)NC(=O)[C@@H](N)CC(=O)O)c1ccccc1` [Example 14, L-aspartyl-D-α-aminobutyric acid-N-(S)-α-ethylbenzyl amide], the Sweetness was determined as 2500 times sucrose.

Assay in a further test: not given
Particulars: disclosed by Zeng et al.; cited from earlier work.
`Cc1cccc(C)c1NC(=O)[C@@H](C)NC(=O)[C@@H](N)CC(=O)O` [2,6-dimethyl-aniline amide]: the sweetness potency was 500 times the sweetness of sucrose.

Assay in a further test: not given
Particulars: reported in U.S. Patent No. 4,411,925; cited from earlier work.
Regarding `C[C@@H](NC(=O)[C@@H](N)CC(=O)O)C(=O)NC(C1CC1)C(C)(C)C` (mixture of isomers) [L-aspartyl-D-alanine amide of (+/-) t-butyl-cyclopropyl methylamine], the “sweetness potency (SP)” value is listed as 1200 times sucrose.

Regarding `CC[C@@H](NC(=O)[C@@H](N)CC(=O)O)C(=O)NC(C1CC1)C1CC1` [R = ethyl], the “sweetness potency (SP)” value is 500 times sucrose.

For `CC(C)[C@@H](NC(=O)[C@@H](N)CC(=O)O)C(=O)NC(C1CC1)C1CC1` [R = isopropyl], the “sweetness potency (SP)” value is on record as 110 times sucrose.

Take `C[C@@H](NC(=O)[C@@H](N)CC(=O)O)C(=O)NC(C1CC1)C1CC1` [R = methyl]: the “sweetness potency (SP)” value is listed as 1200 times sucrose.
